# According to article PMC12048447, “PANTAX: a phase Ib clinical trial of the efflux pump inhibitor SCO-101 in combination with gemcitabine and nab-paclitaxel in non-resectable or metastatic pancreatic cancer” (Investigational New Drugs, 2025):
# Columns and labels:
# [1] = test system: patients with metastatic PDAC; parameters: method as in PMID 24131140; conditions: MPACT phase III; cited from earlier work
# [2] = test system: PANC-1-Pac cells; experiment: MTT cell viability and ZIP synergy in paclitaxel-resistant PANC-1-Pac cells; assay type: cell-based, human; conditions: for ZIP synergy score with paclitaxel: PANC-1-Pac cells, score above 10 indicates synergy
# Source text: (§1) A paclitaxel-sensitive human PDAC cell line, PANC-1, was obtained (ATCC, CRL-1469) and the derived paclitaxel-resistant PANC-1-Pac cell line was established by gradually increasing concentrations of paclitaxel over a period of 2–4 months. Standard MTT and crystal violet assays were applied to evaluate the effect of treatment with either combinations of SCO-101 and paclitaxel or SRPK1-inhibitor and paclitaxel. Details are presented in the Online Resource.
# Statistical analyses were mainly descriptive and included mean, median, range, and 95% CIs. Kaplan–Meier plots were constructed using Stata version 18 (StataCorp, 2023). In the preclinical study, the zero interaction potency (ZIP) synergy score was calculated as described by Yadav et al., to quantify the deviation from the expectation of zero interaction between drugs. A ZIP synergy score above 10 indicates synergy.
# as §1, with “line PANC-1” for “line, PANC-1,”, “2-4” for “2–4”, “SCO-101/paclitaxel” for “SCO-101 and paclitaxel”, “SRPK1 inhibitor/paclitaxel.” for “SRPK1-inhibitor and paclitaxel. Details are presented in the Online Resource.”
# The selection began at 1 nM, increased to 2 nM and 4 nM, and ended at 8 nM. For each drug concentration the cells were kept for three passages. To evaluate the effect of the treatment either a Crystal Violet assay or MTT (3-(4,5-dimethylthiazol-2-yl)-2,5-diphenyltetrazolium bromide) assay were applied.
# The MTT was conducted according to standard conditions. In short, cells were seeded at a density of 7,000 cells/well into a 96-well. One day after seeding, the cells were experimentally treated. Control conditions consisted of either growth medium (‘untreated’) or DMSO diluted in growth medium. All treatments were performed in triplicates. The cells were then kept in the CO2 incubator at 37 °C for 72 hours and plates were incubated with 100μl 1:10 MTT (0.5 mg/ml dissolved in phosphate buffered saline) for 3 hours and hereafter stopped using 100μl/well stop buffer (50g Sodium Dodecyl Sulphate, 245 mL MiliQ H2O, 5mL 1.0 N HCl was added to dissolve the formazan crystals overnight. Optical densities were measured at 570 and 670 nm.
# Experiments with 4 different concentrations of either SCO-101 or paclitaxel and their combinations were applied to test for synergy among these two compounds in both the PANC-1 parental and -Paclitaxel resistant cells. SCO-101 was applied in 10, 20, 40 and 50 µM whereas paclitaxel was tested in 5, 10, 15 and 20 nM for a total of 144 h, where drug was only present in the first 72h (sFig 2). The SRPK1 inhibitor SPHINX31 was tested at 0.1; 0.5; 1 and 5 µM. The SRPK1 inhibitor SRPIN was tested at 1; 5; 10 and 50 µM. Both inhibitors were tested in combination with 5, 10, 15 and 20 nM Paclitaxel.
# PANC-1-Pac cells treated with paclitaxel and SRPIN340 with four different concentrations of each for a total of 144 hours. Cell viability was evaluated by MTT assays and reported as percentage of untreated control (medium). Error bars indicate percentage standard deviation.
# [3] = test system: PDAC patients; parameters: method as in PMID 16034525; conditions: clinical phase II study; cited from earlier work
# [4] = test system: PDAC patients; parameters: method as in PMID 20107864; conditions: phase II trial; cited from earlier work
smiles,measurement,setting,value
"Nc1ccn([C@@H]2O[C@H](CO)[C@@H](O)C2(F)F)c(=O)n1 [Gem, gemcitabine]",median overall survival (mOS),[1],6.7 months
same,objective response rate (ORR),[1],7%
O=C(Nc1cc(C(F)(F)F)ccc1N1CCN(Cc2ccccn2)CC1)c1ccc(-c2ccncc2)o1 [SPHINX31],ZIP synergy score with paclitaxel,[2]; SPHINX31 + paclitaxel for 144 h,57.037
O=C(Nc1cc(C(F)(F)F)ccc1N1CCCCC1)c1ccncc1 [SRPIN340],ZIP synergy score with paclitaxel,"[2]; SRPIN340 + paclitaxel, 72 h with drug + 72 h fresh media",21.4
Cc1ccc(-c2cc(C(F)(F)F)nn2-c2ccc(S(N)(=O)=O)cc2)cc1 [celecoxib],effect when combined with Gem and cisplatin,[3],no apparent effect
O=c1c(-c2ccc(O)cc2)coc2cc(O)cc(O)c12 [genistein],effect when added to erlotinib and Gem,[4],no clear effect on survival
CC(=O)O[C@H]1C(=O)[C@@]2(C)[C@H]([C@H](OC(=O)c3ccccc3)[C@]3(O)C[C@H](OC(=O)[C@H](O)[C@@H](NC(=O)c4ccccc4)c4ccccc4)C(C)=C1C3(C)C)[C@]1(OC(C)=O)CO[C@@H]1C[C@@H]2O [paclitaxel],"effect on PANC-1-Pac cells (cell viability), drug alone",[2]; 72 h with drug + 72 h fresh media,dose-dependent effect
same,resistant phenotype to paclitaxel relative to parental PANC-1 control cell line,"[2]; PANC-1-Pac vs PANC-1, MTT, 72 hours",five times higher
